Laboratory results reported in ChEMBL document CHEMBL4507319 (2021).

Key:
[1] = target: 3-phosphoinositide-dependent protein kinase 1 (Homo sapiens) (UniProt O15530); conditions: Compound concentration 1000.0 nM
[2] = target: T1, Activin receptor type-1B (Homo sapiens) (UniProt P36896); conditions: Compound concentration 1000.0 nM
T1 sequence (whole entry): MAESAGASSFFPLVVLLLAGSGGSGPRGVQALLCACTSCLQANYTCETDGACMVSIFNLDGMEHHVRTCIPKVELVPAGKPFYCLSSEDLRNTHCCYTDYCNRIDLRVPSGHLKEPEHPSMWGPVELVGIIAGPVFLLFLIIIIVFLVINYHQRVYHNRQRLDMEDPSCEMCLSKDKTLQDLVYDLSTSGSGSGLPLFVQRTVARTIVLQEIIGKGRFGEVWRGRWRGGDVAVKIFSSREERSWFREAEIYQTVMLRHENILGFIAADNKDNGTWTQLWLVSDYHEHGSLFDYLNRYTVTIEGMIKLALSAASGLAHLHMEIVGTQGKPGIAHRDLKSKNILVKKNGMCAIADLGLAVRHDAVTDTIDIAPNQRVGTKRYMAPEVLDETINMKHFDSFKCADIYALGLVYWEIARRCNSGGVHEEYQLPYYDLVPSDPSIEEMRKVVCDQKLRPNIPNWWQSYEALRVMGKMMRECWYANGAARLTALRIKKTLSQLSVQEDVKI

[3] = target: Serine/threonine-protein kinase D3 (Homo sapiens) (UniProt O94806); conditions: Compound concentration 1000.0 nM
[4] = target: Serine/threonine-protein kinase 26 (Homo sapiens) (UniProt Q9P289); conditions: Compound concentration 1000.0 nM
[5] = target: T2, Serine/threonine-protein kinase ICK (Homo sapiens) (UniProt Q9UPZ9); conditions: Compound concentration 1000.0 nM
T2 sequence (whole entry): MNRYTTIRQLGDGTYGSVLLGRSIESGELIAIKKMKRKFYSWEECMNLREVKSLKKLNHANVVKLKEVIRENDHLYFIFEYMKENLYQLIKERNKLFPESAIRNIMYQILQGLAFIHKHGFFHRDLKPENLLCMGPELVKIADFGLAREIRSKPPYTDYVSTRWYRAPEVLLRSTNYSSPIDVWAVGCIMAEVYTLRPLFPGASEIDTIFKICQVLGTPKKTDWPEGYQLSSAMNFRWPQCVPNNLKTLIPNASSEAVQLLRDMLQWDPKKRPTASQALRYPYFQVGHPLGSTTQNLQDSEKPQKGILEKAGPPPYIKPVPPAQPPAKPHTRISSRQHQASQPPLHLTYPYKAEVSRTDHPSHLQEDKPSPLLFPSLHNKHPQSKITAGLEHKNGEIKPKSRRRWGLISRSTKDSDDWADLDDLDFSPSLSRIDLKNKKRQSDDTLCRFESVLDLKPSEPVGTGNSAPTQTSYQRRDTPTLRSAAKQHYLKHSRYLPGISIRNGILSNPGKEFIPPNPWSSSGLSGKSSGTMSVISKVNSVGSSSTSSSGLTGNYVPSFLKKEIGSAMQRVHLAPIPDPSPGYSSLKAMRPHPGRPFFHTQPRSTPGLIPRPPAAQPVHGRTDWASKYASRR

[6] = target: Mitogen-activated protein kinase kinase kinase 12 (Homo sapiens) (UniProt Q12852); conditions: Compound concentration 1000.0 nM
[7] = system: Epidermal growth factor receptor (Homo sapiens), P00533 [L861Q]; conditions: Compound concentration 1000.0 nM
[8] = target: Tyrosine-protein kinase Fes/Fps (Homo sapiens) (UniProt P07332); conditions: Compound concentration 1000.0 nM
[9] = target: Tyrosine-protein kinase JAK1 (Homo sapiens) (UniProt P23458); conditions: Compound concentration 1000.0 nM
[10] = target: Muscarinic acetylcholine receptor M3 (Homo sapiens) (UniProt P20309); conditions: Compound concentration 10.0 uM
[11] = system: Proto-oncogene tyrosine-protein kinase receptor Ret (Homo sapiens), P07949 [M918T]; conditions: Compound concentration 1000.0 nM
[12] = target: Serine/threonine-protein kinase MRCK alpha (Homo sapiens) (UniProt Q5VT25); conditions: Compound concentration 1000.0 nM
[13] = target: Casein kinase I isoform alpha-like (Homo sapiens) (UniProt Q8N752); conditions: Compound concentration 1000.0 nM
[14] = target: Cyclin-dependent kinase 5 (Homo sapiens) (UniProt Q00535); conditions: Compound concentration 1000.0 nM
[15] = target: T3, MAP kinase-activated protein kinase 5 (Homo sapiens) (UniProt Q8IW41); conditions: Compound concentration 1000.0 nM
T3 sequence (whole entry): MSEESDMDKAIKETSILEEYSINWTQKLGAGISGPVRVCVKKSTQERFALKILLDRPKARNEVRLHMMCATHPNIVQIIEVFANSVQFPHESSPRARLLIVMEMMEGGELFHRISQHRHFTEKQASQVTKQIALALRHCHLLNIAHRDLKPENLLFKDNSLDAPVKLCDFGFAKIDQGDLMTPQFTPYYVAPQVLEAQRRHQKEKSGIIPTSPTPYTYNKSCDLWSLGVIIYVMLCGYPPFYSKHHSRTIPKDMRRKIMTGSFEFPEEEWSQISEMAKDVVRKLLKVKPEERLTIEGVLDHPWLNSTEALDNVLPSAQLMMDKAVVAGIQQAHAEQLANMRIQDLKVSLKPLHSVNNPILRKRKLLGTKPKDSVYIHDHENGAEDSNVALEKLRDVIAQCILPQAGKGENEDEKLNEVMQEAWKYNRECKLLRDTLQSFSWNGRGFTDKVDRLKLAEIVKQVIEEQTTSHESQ

[16] = target: Tyrosine-protein kinase Lck (Homo sapiens) (UniProt P06239); conditions: Compound concentration 1000.0 nM
[17] = target: Mitogen-activated protein kinase 9 (Homo sapiens) (UniProt P45984); conditions: Compound concentration 1000.0 nM
[18] = target: Cyclin-dependent kinase 11B (Homo sapiens) (UniProt P21127); conditions: Compound concentration 1000.0 nM
[19] = target: Tyrosine-protein kinase Blk (Homo sapiens) (UniProt P51451); conditions: Compound concentration 1000.0 nM

Sequence of Proto-oncogene tyrosine-protein kinase receptor Ret (Homo sapiens), P07949 [M918T] (P07949 whole entry M918T): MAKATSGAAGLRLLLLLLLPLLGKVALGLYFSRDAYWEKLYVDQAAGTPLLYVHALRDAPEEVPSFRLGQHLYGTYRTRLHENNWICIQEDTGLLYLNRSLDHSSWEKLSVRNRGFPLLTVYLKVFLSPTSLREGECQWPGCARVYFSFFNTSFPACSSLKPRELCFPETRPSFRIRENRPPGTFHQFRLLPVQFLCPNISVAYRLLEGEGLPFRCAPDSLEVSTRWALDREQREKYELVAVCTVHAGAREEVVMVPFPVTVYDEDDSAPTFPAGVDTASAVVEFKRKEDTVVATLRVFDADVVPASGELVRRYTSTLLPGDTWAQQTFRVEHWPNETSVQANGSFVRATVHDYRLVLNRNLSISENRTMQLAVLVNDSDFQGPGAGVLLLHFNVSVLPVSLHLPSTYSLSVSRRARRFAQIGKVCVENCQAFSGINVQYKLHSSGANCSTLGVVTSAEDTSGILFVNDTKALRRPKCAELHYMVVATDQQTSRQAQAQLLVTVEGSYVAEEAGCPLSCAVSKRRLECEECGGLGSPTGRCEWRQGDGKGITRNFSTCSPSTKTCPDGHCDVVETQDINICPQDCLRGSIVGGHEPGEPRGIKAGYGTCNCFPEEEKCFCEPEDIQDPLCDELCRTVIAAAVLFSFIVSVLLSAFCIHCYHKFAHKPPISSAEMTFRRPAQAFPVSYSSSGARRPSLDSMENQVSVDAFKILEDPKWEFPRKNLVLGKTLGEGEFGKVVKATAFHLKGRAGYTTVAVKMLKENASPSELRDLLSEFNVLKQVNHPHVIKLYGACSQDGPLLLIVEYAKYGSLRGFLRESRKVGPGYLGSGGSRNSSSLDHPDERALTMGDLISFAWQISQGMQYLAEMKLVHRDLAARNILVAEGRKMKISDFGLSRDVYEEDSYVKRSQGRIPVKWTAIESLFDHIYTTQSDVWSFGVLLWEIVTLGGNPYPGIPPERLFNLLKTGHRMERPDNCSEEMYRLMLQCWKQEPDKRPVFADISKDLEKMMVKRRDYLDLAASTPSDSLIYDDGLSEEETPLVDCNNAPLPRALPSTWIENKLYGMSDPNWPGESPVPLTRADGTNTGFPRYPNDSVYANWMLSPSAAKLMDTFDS
Sequence of Serine/threonine-protein kinase D3 (Homo sapiens) (O94806 whole entry): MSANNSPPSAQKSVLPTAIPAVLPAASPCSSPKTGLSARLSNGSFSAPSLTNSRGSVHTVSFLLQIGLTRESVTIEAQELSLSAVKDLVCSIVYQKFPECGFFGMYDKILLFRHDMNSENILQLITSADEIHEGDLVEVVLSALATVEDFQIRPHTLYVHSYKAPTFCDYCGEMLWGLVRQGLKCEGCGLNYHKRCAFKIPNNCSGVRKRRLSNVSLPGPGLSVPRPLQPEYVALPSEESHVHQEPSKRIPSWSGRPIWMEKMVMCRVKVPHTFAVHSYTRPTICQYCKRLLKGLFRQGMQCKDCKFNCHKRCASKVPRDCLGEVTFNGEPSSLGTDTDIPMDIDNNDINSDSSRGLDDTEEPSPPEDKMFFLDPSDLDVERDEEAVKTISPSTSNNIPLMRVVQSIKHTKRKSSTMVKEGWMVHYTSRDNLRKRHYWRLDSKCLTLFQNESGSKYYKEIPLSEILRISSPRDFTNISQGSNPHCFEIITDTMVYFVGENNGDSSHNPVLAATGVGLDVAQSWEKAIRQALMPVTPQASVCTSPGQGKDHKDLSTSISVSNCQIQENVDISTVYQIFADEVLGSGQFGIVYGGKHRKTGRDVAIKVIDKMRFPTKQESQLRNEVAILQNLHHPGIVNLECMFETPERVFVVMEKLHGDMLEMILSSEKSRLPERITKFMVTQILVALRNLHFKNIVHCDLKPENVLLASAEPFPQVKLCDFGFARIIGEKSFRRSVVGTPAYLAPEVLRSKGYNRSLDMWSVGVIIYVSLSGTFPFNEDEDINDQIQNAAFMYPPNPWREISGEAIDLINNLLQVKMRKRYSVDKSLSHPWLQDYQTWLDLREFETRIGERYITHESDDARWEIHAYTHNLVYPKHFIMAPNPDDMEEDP
Sequence of Tyrosine-protein kinase Fes/Fps (Homo sapiens) (P07332 whole entry): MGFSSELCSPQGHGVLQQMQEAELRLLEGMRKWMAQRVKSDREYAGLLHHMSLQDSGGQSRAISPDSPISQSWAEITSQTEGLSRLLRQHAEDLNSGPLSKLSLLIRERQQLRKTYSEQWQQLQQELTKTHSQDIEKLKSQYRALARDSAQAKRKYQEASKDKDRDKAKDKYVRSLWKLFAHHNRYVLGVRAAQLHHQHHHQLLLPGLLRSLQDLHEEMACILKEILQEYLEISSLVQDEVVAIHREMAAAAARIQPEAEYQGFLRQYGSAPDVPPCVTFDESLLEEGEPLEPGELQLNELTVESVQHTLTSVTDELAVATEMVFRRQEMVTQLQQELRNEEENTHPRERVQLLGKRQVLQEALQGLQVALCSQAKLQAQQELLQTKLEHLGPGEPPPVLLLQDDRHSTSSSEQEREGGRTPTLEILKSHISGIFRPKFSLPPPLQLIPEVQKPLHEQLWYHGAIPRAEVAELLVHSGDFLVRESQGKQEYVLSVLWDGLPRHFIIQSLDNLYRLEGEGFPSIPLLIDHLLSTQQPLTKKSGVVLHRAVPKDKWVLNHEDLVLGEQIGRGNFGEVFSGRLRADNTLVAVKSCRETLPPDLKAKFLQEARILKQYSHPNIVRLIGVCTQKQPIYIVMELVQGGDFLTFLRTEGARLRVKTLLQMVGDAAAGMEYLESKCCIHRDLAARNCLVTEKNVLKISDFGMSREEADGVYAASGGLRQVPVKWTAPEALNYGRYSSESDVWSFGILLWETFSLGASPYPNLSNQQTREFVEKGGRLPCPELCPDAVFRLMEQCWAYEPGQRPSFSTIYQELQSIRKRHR
Sequence of Mitogen-activated protein kinase 9 (Homo sapiens) (P45984 whole entry, looked up): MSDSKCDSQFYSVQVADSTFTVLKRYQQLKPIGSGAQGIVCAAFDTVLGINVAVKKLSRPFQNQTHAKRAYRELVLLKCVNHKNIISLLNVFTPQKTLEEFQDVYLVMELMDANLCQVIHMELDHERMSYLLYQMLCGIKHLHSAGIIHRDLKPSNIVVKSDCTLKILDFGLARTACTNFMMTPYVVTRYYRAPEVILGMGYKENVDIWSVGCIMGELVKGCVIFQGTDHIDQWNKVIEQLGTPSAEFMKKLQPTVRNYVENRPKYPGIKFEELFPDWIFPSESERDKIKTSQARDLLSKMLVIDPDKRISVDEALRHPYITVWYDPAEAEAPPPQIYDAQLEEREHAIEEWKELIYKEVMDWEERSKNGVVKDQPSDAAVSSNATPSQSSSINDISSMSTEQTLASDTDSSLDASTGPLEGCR
Sequence of 3-phosphoinositide-dependent protein kinase 1 (Homo sapiens) (O15530 whole entry): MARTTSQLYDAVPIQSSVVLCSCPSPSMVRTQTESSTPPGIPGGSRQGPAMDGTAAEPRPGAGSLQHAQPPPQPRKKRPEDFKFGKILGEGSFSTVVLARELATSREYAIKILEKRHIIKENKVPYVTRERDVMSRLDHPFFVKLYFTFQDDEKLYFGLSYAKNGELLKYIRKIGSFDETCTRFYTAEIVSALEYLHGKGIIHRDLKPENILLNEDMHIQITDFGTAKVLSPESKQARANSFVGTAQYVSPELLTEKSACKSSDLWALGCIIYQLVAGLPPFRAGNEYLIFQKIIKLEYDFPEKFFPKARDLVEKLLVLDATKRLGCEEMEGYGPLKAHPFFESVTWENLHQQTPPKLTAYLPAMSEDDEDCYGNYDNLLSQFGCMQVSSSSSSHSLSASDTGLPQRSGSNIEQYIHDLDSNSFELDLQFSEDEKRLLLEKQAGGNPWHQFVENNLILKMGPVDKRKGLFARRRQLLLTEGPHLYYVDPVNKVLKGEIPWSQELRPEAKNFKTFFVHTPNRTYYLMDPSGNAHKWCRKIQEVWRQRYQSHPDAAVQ
Sequence of Casein kinase I isoform alpha-like (Homo sapiens) (Q8N752 whole entry, canonical isoform): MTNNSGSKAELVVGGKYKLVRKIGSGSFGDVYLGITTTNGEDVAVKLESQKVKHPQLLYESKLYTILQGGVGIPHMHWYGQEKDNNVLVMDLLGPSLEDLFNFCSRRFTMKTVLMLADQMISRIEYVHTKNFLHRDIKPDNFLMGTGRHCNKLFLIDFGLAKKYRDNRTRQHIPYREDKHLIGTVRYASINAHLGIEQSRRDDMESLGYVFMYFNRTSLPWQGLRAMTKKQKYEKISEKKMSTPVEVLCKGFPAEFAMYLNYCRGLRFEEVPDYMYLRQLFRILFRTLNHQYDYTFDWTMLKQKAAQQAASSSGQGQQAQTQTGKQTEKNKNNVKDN
Sequence of Mitogen-activated protein kinase kinase kinase 12 (Homo sapiens) (Q12852 whole entry): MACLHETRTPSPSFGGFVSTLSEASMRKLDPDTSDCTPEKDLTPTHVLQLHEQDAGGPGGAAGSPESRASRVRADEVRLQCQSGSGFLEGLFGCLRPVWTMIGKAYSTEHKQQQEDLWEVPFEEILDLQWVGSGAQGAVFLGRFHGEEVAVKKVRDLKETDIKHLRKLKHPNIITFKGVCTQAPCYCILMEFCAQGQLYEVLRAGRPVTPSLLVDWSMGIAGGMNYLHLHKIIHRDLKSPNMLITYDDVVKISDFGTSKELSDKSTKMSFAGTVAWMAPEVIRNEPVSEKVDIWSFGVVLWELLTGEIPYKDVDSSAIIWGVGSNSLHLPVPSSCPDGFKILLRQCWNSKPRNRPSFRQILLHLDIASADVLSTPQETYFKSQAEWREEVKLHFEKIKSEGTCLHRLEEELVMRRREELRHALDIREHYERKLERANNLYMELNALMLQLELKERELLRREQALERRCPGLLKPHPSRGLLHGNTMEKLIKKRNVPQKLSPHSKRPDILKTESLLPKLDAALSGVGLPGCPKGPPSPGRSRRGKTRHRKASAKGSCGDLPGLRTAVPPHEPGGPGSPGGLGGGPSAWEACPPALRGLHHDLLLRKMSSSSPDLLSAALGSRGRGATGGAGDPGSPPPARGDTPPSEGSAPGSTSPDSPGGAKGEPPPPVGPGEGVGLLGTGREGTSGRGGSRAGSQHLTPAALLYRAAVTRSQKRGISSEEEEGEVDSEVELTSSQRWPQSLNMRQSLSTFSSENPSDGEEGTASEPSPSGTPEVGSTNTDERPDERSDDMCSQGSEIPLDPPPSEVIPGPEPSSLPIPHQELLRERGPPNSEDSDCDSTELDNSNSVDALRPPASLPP

Compound	residual activity [1] [%]	residual activity [2] [%]	residual activity [3] [%]	residual activity [4] [%]	residual activity [5] [%]	residual activity [6] [%]	residual activity [7] [%]	residual activity [8] [%]	residual activity [9] [%]	inhibition [10] [%]	residual activity [11] [%]	residual activity [12] [%]	residual activity [13] [%]	residual activity [14] [%]	residual activity [15] [%]	residual activity [16] [%]	residual activity [17] [%]	residual activity [18] [%]	residual activity [19] [%]
CCc1ccccc1C(=O)Nc1n[nH]c2c(C)c(F)c(C3C(C#N)=C(C)N(C)C(C)=C3C#N)cc12 [BAY-3827]	86	100	88	98	100	94	43	68	91	22.5	64	100	62	89	100	100	67	100	100
CC1=C(C#N)C(c2ccc3c(c2)c(NC(=O)c2ccccc2C)nn3C)C(C#N)=C(C)N1 [BAY-974]	77	80	72	100	97	80	69	84	90	9.49	100	100	97	87	100	81	73	100	82
